Experiment [1] concerns AGS, MGC803, Bel7402, HCT116, A549, and HeLa. Kind of experiment: MTT assay, overall statement on six tumour cell lines. In kind it is cell-based, human. To be noted: six cancer cell lines. The source says:
(§1) Human gastric cancer (AGS), human differentiation of advanced gastric cancer (MGC803), human colorectal cancer (HCT116), human lung cancer (A549), human hepatocellular carcinoma (Bel7402) and human cervical cancer (HeLa) cell lines were obtained from the State Key Laboratory of Natural Resources and Functional Molecules of the Changbai Mountain (Yanbian University) and maintained in Dulbecco’s modified Eagle’s medium and RPMI Media 1640 (RPMI1640), supplemented with 10% foetal bovine serum 100 IU/ml penicillin, […] and 2 mmol/l L-glutamine (Sigma) at 37 °7 in a humidified atmosphere containing 5% CO2.
(§2) All six human cancer cell lines and normal L02 cells were seeded in 96-well plates at the appropriate densities to ensure exponential growth throughout the experimental period (9 × 10^3 cells per well) and then allowed to adhere for 24 h. The cells were then treated for 48 h with four serial dilutions (100, 50, 10, and 1 µM) of each compound. 5-Fluorouracil (5-FU) was used as the positive control. After incubation for 48 h, 10 µl MTT solution was added to each well to give a final concentration of 2 mg ml^−1. The plates were then incubated for further 4 h. After incubation, the MTT solution was removed and 150 µl DMSO was added to each well to solubilise the formed product. To ensure complete solubilisation, the plates were shaken vigorously for 10 min at room temperature. The optometric density (OD) was read on a microplate reader (ELx800, BioTek, Highland Park, Winooski, VT) at a wavelength of 492 nm and the data were subsequently analysed. The percentage of cell growth inhibition was calculated from the following equation: inhibitory rate (%) = [1–(ODtreated–ODblank)/(ODcontrol–ODblank)] × 100.
(§3) The MTT assay was performed using a standard protocol.

The test system of another experiment is AGS. The experiment in a line: MTT antiproliferative assay, AGS cells. In kind it is cell-based, human. The conditions noted are these: for Selectivity index AGS: IC50 on normal cells (L02)/IC50 on tumour cells (AGS); for IC50: MTT, 48 h, means ± SD, n = 3.
From the text: as §1, §2, §3

The next experiment deals with A549. Kind of experiment: MTT antiproliferative assay, A549 cells. In kind it is cell-based, human. To be noted: for IC50: Homo sapiens, A549, MTT, 48 h, means ± SD, n = 3; for Selectivity index A549: IC50 on normal cells (L02)/IC50 on tumour cells (A549).
From the text: as §1, §2, §3
(In general: Tetrazolium assays rely on reduction of a dye to a coloured formazan, in cell work by metabolically active cells.)

Experiment [2] concerns HCT116. The experiment in a line: MTT antiproliferative assay, HCT116 cells. In kind it is cell-based, human. The conditions noted are these: for IC50: MTT, 48 h, means ± SD, n = 3; for Selectivity index HCT116: IC50 on normal cells (L02)/IC50 on tumour cells (HCT116).
From the text: as §1, §2, §3

A further experiment relates to Hela. The experiment in a line: MTT antiproliferative assay, HeLa cells. The experiment is classed as cell-based, human. To be noted: for IC50: Homo sapiens, HeLa, MTT, 48 h, means ± SD, n = 3; for Selectivity index Hela: IC50 on normal cells (L02)/IC50 on tumour cells (Hela).
From the text: as §1, §2, §3

Another experiment deals with L02. Kind of experiment: MTT assay on normal cell line L02. To be noted: normal human liver cell line L02, MTT, 48 h. In kind it is cell-based. Here is the method: as §2, with “5-Fluorouracil (5-FU) was used as the positive control.” left out
Lack of selective cytotoxicity is the main factor that restricts the dose of most conventional chemotherapeutic agents. […] Selectivity indexes between cancer cells and L-02 cells were calculated.

The test system of the next experiment is MGC803. Kind of experiment: MTT antiproliferative assay, MGC803 cells. The experiment is classed as cell-based, human. The conditions noted are these: for IC50: Homo sapiens, MGC-803, MTT, 48 h, means ± SD, n = 3; for Selectivity index MGC803: IC50 on normal cells (L02)/IC50 on tumour cells (MGC803).
From the text: as §1, §2, §3

Another experiment relates to Bel7402. Kind of experiment: MTT antiproliferative assay, Bel7402 cells. In kind it is cell-based, human. To be noted: for IC50: Homo sapiens, Bel-7402, MTT, 48 h, means ± SD, n = 3; for Selectivity index Bel7402: IC50 on normal cells (L02)/IC50 on tumour cells (Bel7402).
From the text: as §1, §2, §3

Experiment [3] relates to HCT116 cells. Kind of experiment: Cell cycle distribution by flow cytometry (PI). The conditions noted are these: HCT116, 5 μM, 48 h; control 19.35%. The experiment is classed as cell-based, human. As for the experimental part: HCT116 cells were plated in six-well plates (1.0 × 10^6 cells per well) and incubated at 37 °7 for 12 h. Exponentially growing cells were then incubated with compound 2p at different concentrations (0 , 5.0 µM) and oridonin at 5.0 µM. After 48 h, the cells were centrifuged at 1000 rpm for 10 min and then fixed in 70% ethanol at −20 °0 for at least 24 h. The cells were subsequently resuspended in phosphate-buffered saline (PBS) containing 50 µg ml^−1 RNase A and 50 µg ml^−1 PI. The cellular DNA content for the cell cycle distribution analysis was measured by flow cytometry using a FACSCalibur flow cytometer with Cell Quest software (Becton-Dickinson, Franklin Lakes, NJ), plotting at least 30,000 events per sample. The percentage of cells in the G1, S and G2 phases of the cell cycle were determined using the ModFit LT V4.0 software package (Verity Software, Topsham, ME).
Numerous cytotoxic compounds exert their antiproliferative effect by inducing cell cycle arrest (at a particular cell cycle checkpoint), apoptosis, or both[25]. These mechanisms are considered to be effective anticancer strategies. We used fluorescence-activated cell sorting analysis to explore the mechanism by which compound 2p reduced the viability of HCT116 cells. Compound 2p and oridonin were selected and tested against HCT116 cell lines at a concentration of 5 µM.

The test system of experiment [4] is HCT116 cells. The experiment in a line: Apoptosis by flow cytometry (annexin V-FITC/PI). The experiment is classed as cell-based, human. To be noted: HCT116, 5 µM, 48 h; vehicle 6.20%. Here is the method: Apoptosis was detected using an Apoptosis Detection Kit (Invitrogen, Eugene, OR). Briefly, cells were plated in six-well plates (1.0 × 10^6 cells per well) and incubated at 37 °C for 12 h. Exponentially growing cells were then incubated with compound 2p at different concentrations (0 , 5.0 µM) and oridonin at 5.0 µM. Following 48 h of incubation, the cells were collected and washed twice with PBS, once with 1 × binding buffer, and then stained with 5 µM annexin V-FITC and 2.5 µM PI in 1 × binding buffer for 30 min at room temperature in the dark. Apoptotic cells were quantified using a FACSCalibur flow cytometer with the Cell Quest software (Becton-Dickinson).
Because compound 2p arrested the cells in the G2 phase, we investigated whether it also causes apoptosis. HCT116 cells were treated with the vehicle, compound 2p (5 µM), or oridonin (5 µM) for 48 h, and then stained with annexin V-FITC and PI.

In experiment [5] the test system is HCT116. To be noted: cited from earlier work.
Another experiment has as its system A549 cells. To be noted: A549 cells; cited from earlier work.

As usually defined, the IC50 is the concentration that gives 50% inhibition.

Like-named read-outs stand apart in the source and are kept apart here.

As to `COc1ccc(C=C2C(=O)C34C(O)C2CCC3C23COC4(O)C(O)C2C(C)(C)CCC3O)c(OC)c1` [Compound 2l, (1S,4aR,5S,6S,6aR,9S,11aS,14R,E)-8-(2,4-dimethoxybenzylidene)-1,5,6,14-tetrahydroxy-4,4-dimethyldecahydro-1H-6,11b-(epoxymethano)-6a,9-methanocyclohe-pta[a]naphthalen-7(8H)-one], the “antiproliferative activities against the six tumour cell lines (in words)” value in experiment [1] is “more potent antiproliferative activities in vitro than oridonin”. For the same compound, the “Selectivity index AGS” value with AGS is given as 1.22. Moreover, the IC50 in the experiment on AGS stood at 5.85 ± 1.55 µM; in the experiment on A549 it was 5.12 ± 0.49 µM; in the experiment on HCT116 [2] (Homo sapiens, HCT-116, 48 h), 2.28 ± 0.54 µM; in the experiment with Hela, 14.3 ± 2.04 µM; in the experiment with L02, 7.15 ± 1.36 µM; in the experiment on MGC803 it was 3.49 ± 0.44 µM. The same compound had an IC50 in the experiment with Bel7402 of 2.41 ± 0.37 µM. The “Selectivity index A549” value in the experiment on A549 was 1.40. Moreover, the “Selectivity index HCT116” value in the experiment on HCT116 [2] is 3.14. Moreover, in the experiment with MGC803, the “Selectivity index MGC803” value is 2.05. Also, the “Selectivity index Bel7402” value in the experiment on Bel7402 amounted to 2.97.
For the compound `CC(C)=CCOc1ccc(/C=C2/C(=O)[C@]34[C@H](O)[C@H]2CC[C@H]3C23CO[C@]4(O)[C@@H](O)[C@@H]2C(C)(C)CC[C@@H]3O)cc1` [Compound 2p, (1S,4aR,5S,6S,6aR,9S,11aS,14R,E)-1,5,6,14-tetrahydroxy-4,4-dimethyl-8-(4-((3-methylbut-2-en1yl)oxy)benzylidene)decahydro-1H-6,11b-(epoxymethano)-6a,9-methanocyclohepta[a]naphthalen-7(8H)-one], the “antiproliferative activities against the six tumour cell lines (in words)” value in experiment [1] is “more potent antiproliferative activities in vitro than oridonin”. Moreover, the half-inhibitory concentration (IC50) amounted to 4.09 ± 0.65 µM in the experiment on AGS (Homo sapiens, AGS); 5.9 ± 0.52 µM with A549; 1.08 µM in the experiment with HCT116 [2] (Homo sapiens, HCT-116, 48 h); 1.05 ± 0.23 µM with HCT116 [2]; 6.33 ± 0.96 µM in the experiment with Hela; 6.88 ± 1.12 µM with L02. Moreover, the IC50 in the experiment on MGC803 was determined as 4.54 ± 0.94 µM; with Bel7402 it was 3.21 ± 0.58 µM. In the experiment on AGS, the “Selectivity index AGS” value was 3.28. Also, the “Selectivity index A549” value in the experiment on A549 was found to be 1.17. Also, the “Selectivity index HCT116” value in the experiment on HCT116 [2] came out at 6.55. In addition, the “IC50 value in L02 cells relative to that in HCT116 cells (selectivity)” value in the experiment on HCT116 [2] (L02 versus HCT116) is reported as 6.5 fold. Also, the “Selectivity index Hela” value in the experiment with Hela came to 1.09. Moreover, the “percentage of G2 cell population” value in the experiment with HCT116 cells [3] came out at 41.46%. For the same compound, the “Selectivity index MGC803” value in the experiment on MGC803 was found to be 0.75. In the experiment with HCT116 cells [4], the “percentage of total apoptotic cells (right quadrants, Q2 + Q3)” value is recorded as 60.94%.
Turning to `CC(C)=CCOc1ccc(C(=O)/C=C/c2ccc(Cl)cc2)c(O)c1` [Compound 4], the half-inhibitory concentration (IC50) in the experiment on HCT116 [5] is 0.89 µM.
`C=C1C(=O)O[C@@H]2/C=C(\C)CC/C=C(\C)CC[C@@H]12` [Costunolide]: in the experiment with A549 cells, the half-maximal inhibitory concentration (IC50) was 39.8 µM.
Take `C=C1C(=O)[C@]23[C@H](O)[C@H]1CC[C@H]2[C@@]12CO[C@]3(O)[C@@H](O)[C@@H]1C(C)(C)CC[C@@H]2O` [Oridonin]: the 50% inhibitory concentration (IC50) with AGS (Homo sapiens, AGS) was determined as 8.35 ± 0.41 µM; with A549, 24.7 ± 2.11 µM; in the experiment on HCT116 [2] (Homo sapiens, HCT-116, 48 h), 6.84 ± 0.98 µM; in the experiment on Hela it was 15 ± 2.01 µM; in the experiment with L02, 6.97 ± 0.98 µM; in the experiment with MGC803, 9.18 ± 1.01 µM. This compound yielded an IC50 with Bel7402 of 9.59 ± 1.19 µM. For the same compound, the “Selectivity index AGS” value with AGS is on record as 0.83. In addition, the “Selectivity index A549” value with A549 amounted to 0.28. The “Selectivity index HCT116” value in the experiment on HCT116 [2] came out at 1.02. In addition, in the experiment with Hela, the “Selectivity index Hela” value came to 0.46. Besides, the “percentage of G2 cell population” value with HCT116 cells [3] came out at 37.80%. Besides, the “Selectivity index MGC803” value in the experiment on MGC803 worked out at 0.76. The “percentage of total apoptotic cells (right quadrants, Q2 + Q3)” value with HCT116 cells [4] is recorded as 24.84%. In addition, the “Selectivity index Bel7402” value with Bel7402 turned out to be 0.73.

The values are drawn from article PMC6054517, “Design and synthesis of novel oridonin analogues as potent anticancer agents” (Journal of Enzyme Inhibition and Medicinal Chemistry, 2018).
